The nature of data set [1]: Stability in mouse plasma assessed as compound remaining parent compound after 0.5 hrs. It is filed as ADME, cell-free. The note with it: read-out: Stability.
The nature of data set [2]: Stability in mouse plasma assessed as compound remaining parent compound after 6 hrs. In kind it is ADME, cell-free. The note with it: read-out: Stability.
Data set [3] concerns the target T1, Alpha glucosidase (Homo sapiens, UniProt O43451+P10253+P14410+Q2M2H8). The data set is described as follows: Inhibition of alpha-glucosidase (unknown origin) assessed as inhibition rate at 100 uM relative to control. It is filed as protein assay.
Data set [4] in a line: Aqueous solubility of compound. In kind it is physicochemical.
The nature of data set [5]: Stability in mouse plasma assessed as compound remaining parent compound after 1 hrs. It is filed as ADME, cell-free. The following applies: read-out: Stability.
In data set [6] the target is T1, Alpha glucosidase. The data set is described as follows: Inhibition of alpha-glucosidase (unknown origin). It is filed as protein assay.
Data set [7] is described as follows: Cytotoxicity against human LO2 cells by MTT assay. In kind it is toxicity, cell-based, L02.
Data set [8] can be described thus: Inhibition of alpha-amylase (unknown origin). Also on record: species or system Homo sapiens.
Data set [9] can be described thus: Selectivity index, ratio of IC50 for alpha-amylase (unknown origin) to IC50 for alpha-glucosidase (unknown origin).
For data set [10], the target named is T1, Alpha glucosidase. The data set is described as follows: Binding affinity to alpha-glucosidase (unknown origin) assessed as decreased in Vmax using p-nitrophenyl glucopyranoside as substrate at 1 to 16 uM by Lineweaver-Burk plot analysis. It is filed as protein assay. The note with it: dose 1-16 µM.
Data set [11] deals with T1, Alpha glucosidase. As to the kind of experiment: Binding affinity to alpha-glucosidase (unknown origin) assessed as inhibition constant. It is filed as protein assay.

≈ marks a conversion by molar mass, not a printed value.

The inhibition is the drop in the measured response relative to a control, in per cent. Broadly, the solubility is how much of the substance goes into solution per volume. One may read the IC50 as the concentration needed to halve the response being measured. Low values mean greater potency in that assay, high ones weaker potency in that assay. Take `COc1ccc(CNC(=O)Nc2sc3c(c2C#N)CCCC3)c(OC)c1`: the remaining at 0.5 h in data set [1] was determined as 78%. Also, the remaining at 6 h in data set [2] was determined as 28.5%. For the same molecule, the inhibition at Alpha glucosidase [3] was found to be 73.9%. Besides, the concentration in solution in data set [4] (solubility) was 28.6 µM (≈ 10.6 µg/mL). Besides, the remaining at 1 h in data set [5] turned out to be 51.4%. For the same molecule, on Alpha glucosidase [6], the IC50 stood at 15.32 µM.

For the molecule `COc1cc(C=O)ccc1OCC(=O)Nc1sc2c(c1C#N)CCC2`, the inhibition on Alpha glucosidase [3] was 70.4%. Further, the half-inhibitory concentration (IC50) against Alpha glucosidase [6] is 35.6 µM.

Take `CCOC(=O)C1CCc2sc(NC(=O)COc3ccc(C=O)cc3OC)c(C#N)c21` (centres undefined): the inhibition on Alpha glucosidase [3] is 61.5%. At Alpha glucosidase [6], this molecule returned an IC50 of 69.78 µM.

In the case of `COc1cc(C=O)ccc1OCC(=O)Nc1sc2c(c1C#N)CCCC2`, the inhibition on Alpha glucosidase [3] is 70.4%. Moreover, at Alpha glucosidase [6], the 50% inhibitory concentration (IC50) turned out to be 14.09 µM.

`Cc1cccc(C=O)c1OCC(=O)Nc1sc2c(c1C#N)CCC(C)C2` (centres undefined) registered an IC50 against Alpha glucosidase [6] of over 50 µM.

As a reminder, the CC50 is the concentration giving 50% cytotoxicity. A low value points to harm at low concentration. As usually defined, the Ki is a measure of affinity in units of concentration, obtained from inhibition or displacement. Take `COc1cc(C=O)cc(OCC(=O)Nc2sc3c(c2C#N)CCC(C)C3)c1OC` (racemic): the remaining at 0.5 h in data set [1] was 84.3%. This molecule showed a CC50 in data set [7] of over 200 µM. Also, the IC50 came out at 36.9 µM in data set [8] and 2.11 µM against Alpha glucosidase [6]. Moreover, in data set [2], the remaining at 6 h was determined as 50.6%. The Selectivity Index in data set [9] came to 17.5. The molecule also registered a solubility in data set [4] of 25 µM (≈ 10.4 µg/mL). At Alpha glucosidase [10], the Activity result is “Dose-dependent-effect”. In addition, the remaining at 1 h in data set [5] is 61.3%. In addition, on Alpha glucosidase [11], the inhibition constant (Ki) amounted to 5.56 µM.

`COc1cc(C=O)ccc1OCC(=O)Nc1sc2c(c1C#N)CCCCC2`: the inhibition at Alpha glucosidase [3] was determined as 7.31%.

Molecule `Cc1ccc(C=O)c(OCC(=O)Nc2sc3c(c2C#N)CCC(C)C3)c1` (centres undefined) came in with an IC50 against Alpha glucosidase [6] of over 50 µM.

`C[C@H]1O[C@H](O[C@H]2[C@H](O)[C@@H](O)[C@@H](O[C@H]3[C@H](O)[C@@H](O)C(O)O[C@@H]3CO)O[C@@H]2CO)[C@H](O)[C@@H](O)[C@@H]1N[C@H]1C=C(CO)[C@@H](O)[C@H](O)[C@H]1O` (some centres undefined) [ACARBOSE] had a cytotoxic concentration (CC50) in [7] of over 200 µM. Moreover, in data set [8], half-maximal inhibition (IC50) was put at 70 µM.

Turning to `COc1cc(C=O)ccc1OCC(=O)Nc1sc2c(c1C#N)CCC(O)C2` (centres undefined), at Alpha glucosidase [3], the inhibition was 86.5%. Also, the half-inhibitory concentration (IC50) against Alpha glucosidase [6] amounted to 10.35 µM.

On to `COc1cc(C=O)ccc1OCC(=O)Nc1sc2c(c1C#N)CCC(C)C2` (centres undefined), for which, in data set [1], the remaining at 0.5 h is 83.3%. This molecule also showed a CC50 in data set [7] of over 200 µM. The values for the 50% inhibitory concentration (IC50) (in data set [8]; against Alpha glucosidase [6]) were 51.7 µM and 7.42 µM, respectively. In addition, the remaining at 6 h in data set [2] was found to be 33.6%. The inhibition at Alpha glucosidase [3] came to 93.4%. Moreover, the Selectivity Index in data set [9] came to 6.97. Further, in data set [4], the solubility worked out at 28.6 µM (≈ 11 µg/mL). In addition, the remaining at 1 h in [5] was found to be 72.9%.

For `COc1ccc(C=O)cc1OCC(=O)Nc1sc2c(c1C#N)CCC(C)C2` (centres undefined), the remaining at 0.5 h in data set [1] was 76.5%. The CC50 in data set [7] is over 200 µM. Further, the IC50 is 38.5 µM in data set [8] and 4.69 µM on Alpha glucosidase [6]. In addition, in data set [2], the remaining at 6 h was determined as 0%. Moreover, in [9], the Selectivity Index came out at 8.19. In [4], this molecule came in with a solubility of 25 µM (≈ 9.61 µg/mL). In data set [5], the remaining at 1 h was 35%.

The molecule `CC1CCc2c(sc(NC(=O)COc3ccc(C=O)cc3)c2C#N)C1` (centres undefined) returned an IC50 on Alpha glucosidase [6] of 24.28 µM.

Turning to `CC1CCc2c(sc(NC(=O)COc3cccc(C=O)c3)c2C#N)C1` (centres undefined), the IC50 against Alpha glucosidase [6] came out at 20.85 µM.

Take `COc1cc(C=O)ccc1OCC(=O)Nc1sc2c(c1C#N)CCOC2`: the inhibition on Alpha glucosidase [3] came to 67.3%. For the same molecule, the IC50 at Alpha glucosidase [6] came to 32.38 µM.

In the case of `COc1cc(C=O)ccc1OCC(=O)Nc1sc2c(c1C#N)CCC1(C2)OCCO1`, the inhibition on Alpha glucosidase [3] worked out at 15.7%.

For the molecule `COc1cc(C=O)ccc1OCC(=O)Nc1sc2c(c1C#N)CCCC2=O`, on Alpha glucosidase [3], the inhibition is 45.6%.

Molecule `CC1CCc2c(sc(NC(=O)COc3ccccc3C=O)c2C#N)C1` (centres undefined) showed a 50% inhibitory concentration (IC50) against Alpha glucosidase [6] of over 50 µM.

Turning to `COc1ccc(C=O)c(OCC(=O)Nc2sc3c(c2C#N)CCC(C)C3)c1` (centres undefined), the remaining at 0.5 h in data set [1] worked out at 57%. The molecule further registered a CC50 in [7] of over 200 µM. Further, the concentration for half-maximal inhibition (IC50) was 65.7 µM in [8] and 7.17 µM against Alpha glucosidase [6]. For the same molecule, the remaining at 6 h in data set [2] was found to be 30%. Besides, in data set [9], the Selectivity Index is 9.2. For the same molecule, in data set [4], the concentration in solution (solubility) was 22.2 µM (≈ 8.53 µg/mL). Further, the remaining at 1 h in [5] is 42.7%.

In the case of `COC(=O)C1CCCc2sc(NC(=O)COc3ccc(C=O)cc3OC)c(C#N)c21` (centres undefined), the inhibition at Alpha glucosidase [3] came to 69.8%. At Alpha glucosidase [6], this molecule displayed a 50% inhibitory concentration (IC50) of 60.25 µM.

Take `Cc1cc(C=O)ccc1OCC(=O)Nc1sc2c(c1C#N)CCC(C)C2` (centres undefined): the IC50 at Alpha glucosidase [6] was found to be 35.55 µM.

(Values after ChEMBL document CHEMBL6153033, “Design and synthesis of N-(3-cyanothiophen-2-yl)-2-phenoxyacetamide-based α-glucosidase inhibitors” (Bioorg Med Chem Lett, 2025).)
